Data set [1] deals with CD8+/TCR- FC from NOD or NOR BM. Briefly: Activation markers and morphology of sorted CD8+/TCR- FC cultured with CpG-ODN. In kind it is cell-based, mouse. Here is the method:
(§1) FIG. 2. Expression of activation markers on FC. (A) Sorted CD8^+/TCR^− FC (100,000) from NOD or NOR BM were cultured with medium or CpG-ODN for 18 h and stained with anti-MHC Class II I-A^d, CD86 or CD80 FITC labeled mAb, or isotype controls. The data shown are representative of three experiments. (B) Level of expression of activation markers on FC with or without CpG-ODN stimulation. The results are percent of CD8^+/TCR^− FC total from 3 separate experiments. (C) The morphology of FC was examined using Wright-Giemsa staining under optical microscopy after CpG-ODN stimulation. (D) P-preDC FC were cultured with CpG-ODN or medium only. Culture cell-free supernatants were collected after 18 h and MIP-1α/CCL3, MCP-1/CCL2, RANTES/CCL5, IP-10, IL-6, GM-CSF, and TNF-α were measured by LINCO plex multiplex immunoassay.
(§2) FC were cultured alone or with 1 μM TLR-9 ligand CpG-ODN 1668 (TCCATGACGTTCCGATGCT) (SEQ ID NO:1) (GIBCO BRL Custom Primers) (13) for 18 h. Supernatants were assayed for cytokines by Linco Diagnostic (St Charles, Mo.) using LINCOplex™ Multiplex immunoassay and cells were stained with anti-CD80, anti-CD86, or anti-MHC class II I-A^d (39-10-8) FITC mAb, with appropriately matched isotype controls.
(§3) Wright-Giemsa staining was performed on cytospins of 100,000 FC after fixed in methanol. Slides were examined for dendritic morphology under optical microscopy.
We evaluated whether NOD FC resemble NOR FC in response to CpG-ODN stimulation.

Data set [2] concerns p-preDC FC from NOD or NOR mice. Briefly: Chemokine and cytokine production by p-preDC FC after CpG-ODN stimulation (LINCOplex multiplex immunoassay). It is filed as cell-based, mouse. Here is the method: as §1, §2
We also examined chemokine and cytokine production by NOD and NOR p-preDC FC after CpG-ODN stimulation. In the presence of CpG-ODN, p-preDC FC produced more MIP-1α/CCL3, RANTES/CCL5, IP-10, IL-6, and TNF-α, compared to the level of those in absence of stimulation (FIG. 2D).

A further data set deals with p-preDC FC. The settings on record: cited from earlier work.
In data set [3] the test system is FC in peripheral blood of NOD mice. In words: FL treatment of NOD donor mice: phenotype and morphology of FL-mobilized PB FC. In kind it is in vivo, mouse. Here is the method:
(§4) FIG. 6. FL-mobilized PB FC facilitate HSC engraftment in allogeneic recipients. Recombinant human FL (expressed from CHO cells) (kindly provided by Amgen; Thousand Oaks, Calif.) was diluted in 0.1% mouse serum albumin (MSA; Sigma, St Louis, Mo.) at a concentration of 100 μg/ml. Donor NOD female mice were injected with 10 μg of FL once daily subcutaneously from day 0 to day 9. Control mice received saline injections. (A) Flow cytometric analysis of subpopulations in sorted FL-mobilized PB FC. (B) Sorted FL-PB FC were examined after Wright-Giemsa staining by optical microscopy. (C) Survival of recipients of HSC plus FL-mobilized PB FC in allogeneic model (NOD→B10). B10 recipients were conditioned with 950 cGy TBI and transplanted with […] from untreated NOD donors either alone or mixed with 30,000 purified FC from untreated NOD bone marrow, or from FL-mobilized PB FC from NOD mice. (D) and (E) Multilineage typing of representative B10 recipients of NOD HSC alone or recipients of NOD HSC plus FL-PB FC. Multilineage data are from PB 3 months after transplantation and analyzed based on the lymphoid and myeloid gate. Data shown are from one representative recipient. A total of 3 to 5 recipients were analyzed per group.
Sorted FC (purity was ≧95%) were incubated with Fc receptor block (anti-CD16/CD32) before staining with lineage-specific markers: anti-CD11 FITC, CD11b APC, CD14 FITC, NK1.1 FITC, DX5 FITC, B220 PerCP, Gr-1 APC and CD19 APC, as previously described (4). Sorted FC were analyzed for p-preDC FC as B220^+/CD11c^+/CD11b^− using Cell Quest Software (Becton Dickinson).
as §3
To test whether FL-treatment can restore the function of NOD FC, the phenotype and function of FL-PB FCs were evaluated. NOD mice were treated with FL for 10 days. FC were sorted from PB, and sorted FC were stained with B220, CD11c, CD19, NK1.1DX5, and CD11b mAbs.

Data set [4] relates to HSC engraftment in B10 recipients. In words: Facilitation of HSC engraftment by FL-mobilized PB FC in allogeneic recipients (NOD to B10). It is filed as in vivo, mouse. Here is the method: as §4
In the syngeneic model, recipients were conditioned with 950 cGy TBI from a Cesium source (Nordion, Ontario, ON, Canada) and transplanted with 500 HSC±30,000 FC populations by tail vein injection≧6 h after irradiation (14). In the allogeneic model, recipients conditioned with 950 cGy TBI were transplanted with 5,000 HSC±30,000 FL-PB FC (4).
Engraftment of donor cells was evaluated by PBL typing using 3-color flow cytometry, as previously described (15).
It was next evaluated whether FL-treatment can restore the facilitating function of NOD FC. […] To test function of FL-PB FC, HSC were sorted from BM of untreated NOD mice and FC from the PB of FL-treated NOD mice. Conditioned B10 recipients received 5,000 HSC plus 30,000 FL-PB FC. Control mice were transplanted with 5,000 HSC±30,000 FC from BM of untreated NOD mice. […] 13% and 20% of recipients of HSC alone (n=9) or HSC plus FC (n=8) from untreated NOD mice survived over 120 days, respectively (FIG. 6C).
Three-color flow cytometric analysis was performed.

Another data set relates to NOD mice. The settings on record: cited from earlier work.
The next data set deals with PB p-preDC. The settings on record: administration of FL into human volunteers; cited from earlier work.
Where [5] appears, read: in response to CpG-ODN stimulation.
The mark [6] stands for this setting: with CpG-ODN compared to absence of stimulation, 18 h supernatant.
Where [7] appears, read: FL-PB FC versus untreated NOD BM FC.
[8] abbreviates: NOD mice, 10 μg FL once daily s.c. for 10 days, FC sorted from PB.
[9] abbreviates: treatment of NOD donors with FL.

Take “CpG-ODN: TLR-9 ligand CpG-ODN 1668 (TCCATGACGTTCCGATGCT) (SEQ ID NO:1) (listed as DNA, chemistry not given here)”: in data set [1] (NOD BM FC, 1 μM CpG-ODN, 18 h), the “CD80 expression on NOD FC” value is recorded as “markedly decreased” and the “CD86 expression on NOD FC” value was “up-regulated”. Besides, the “Morphology of NOD FC” value in data set [1] (NOD FC after CpG treatment, Wright-Giemsa) was “did not exhibit a mature morphology”. Moreover, the “CD86 expression on NOR FC” value in data set [1] (NOR BM FC, 1 μM CpG-ODN, 18 h) is “up-regulated”. Moreover, the “Morphology / activation state of NOR FC” value in data set [1] (NOR FC after CpG-ODN stimulation, compared to NOD FC, Wright-Giemsa) is on record as “more activated state”. In data set [2] (after CpG-ODN stimulation), the “IL-6 amount, NOR p-preDC FC compared to NOD p-preDC FC” value amounted to 5 ×; the “MIP-1α/CCL3 amount, NOR p-preDC FC compared to NOD p-preDC FC” value stood at 2.1 ×; the “RANTES/CCL5 amount, NOR p-preDC FC compared to NOD p-preDC FC” value was 3.5 ×; the “TNF-α amount, NOR p-preDC FC compared to NOD p-preDC FC” value was 1.9 ×. In addition, in data set [2] (setting [5]), the “GM-CSF production by NOD p-preDC FC” value was “do not” and the “GM-CSF production by NOR p-preDC FC” value is “more efficiently”. Further, in data set [2] (setting [6]), the “IL-6 production by p-preDC FC” value is “produced more”, the “IP-10 production by p-preDC FC” value is reported as “produced more”, the “MIP-1α/CCL3 production by p-preDC FC” value was “produced more” and the “RANTES/CCL5 production by p-preDC FC” value is reported as “produced more”. For the same molecule, in data set [2] (setting [6]), the “TNF-α production by p-preDC FC” value is reported as “produced more”. The “Interferon (IFN)-α and tumor necrosis factor (TNF)-α production by p-preDC FC” value in the data set on p-preDC FC (in response to TLR-9 ligand (CpG-ODN) stimulation) is given as “produce”. Moreover, in the data set with p-preDC FC (p-preDC FC stimulated with CpG-ODN), the “CD4+/CD25- T cells differentiation into CD4+/CD25+/FoxP3+ Treg cells in vitro” value is recorded as “promote”.

B1: FL: Recombinant human FL (expressed from CHO cells), provided by Amgen; human FLT3 ligand sequence shown in SEQ ID NO:2 (protein)
chain: MTVLAPAWSPTTYLLLLLLLSSGLSGTQDCSFQHSPISSDFAVKIRELSDYLLQDYPVTVASNLQDEELCGGLWRLVLAQRWMERLKTVAGSKMQGLLERVNTEIHFVTKCAFQPPPSCLRFVQTNISRLLQETSEQLVALKPWITRQNFSRCLELQCQPDSSTLPPPWSPRPLEATAPTAPQPPLLLLLLLPVGLLLLAAAWCLHWQRTRRRTPRPGEQVPPVPSPQDLLLVEH
modifications: Homo sapien
In the case of B1, in data set [3] (setting [7]), the “Percentage of CD19+ FC” value is “remained at same levels” and the “Percentage of p-preDC FC” value was “remained at same levels”. Besides, in data set [3] (setting [8]), the “B220-/CD11c+/CD11b+ DC subpopulation in FL-PB FC” value is recorded as “significant increase” and the “NK1.1+DX5+ subpopulation in FL-PB FC” value is “significant increase”. In data set [3] (setting [9]), the “Total number of FCs in peripheral blood” value is “expanded”. For the same molecule, the “Activation state (dendritic morphology) of FL mobilized NOD PB FC” value in data set [3] (versus untreated NOD BM FC, Wright-Giemsa) is “more activated state”. Also, the “Recipients survived 120 days” value in data set [4] (B10 recipients (950 cGy TBI) of 5,000 untreated NOD HSC plus 30,000 PB FC from FL-treated NOD mice, n=8) is on record as 63%. Further, the “Engraftment of HSC” value in data set [4] (HSC plus PB FC from FL-treated NOD mice in B10 recipients) was “significantly enhanced”. The Multilineage donor chimerism entry in data set [4] (recipients of HSC plus FL-PB FC, followed >4 months, three-color flow cytometry) is listed as “showed donor chimerism for multilineages”. In addition, the “Facilitating function of NOD FC in vivo” value in data set [4] (setting [9]) is listed as “restored”. In addition, in the data set on NOD mice (FL treatment of NOD mice), the Diabetes progression result is “significant delay”; the “Production of defective mature myeloid DC, plasmacytoid DC in spleen and pancreatic lymph nodes” value is listed as “restored production”; the “Treg in pancreatic lymph nodes” value is listed as “significantly increased”. The “Insulitis and progression to diabetes” value with NOD mice (prediabetic NOD mice treated with FL) is listed as “significantly decreased”. In the data set on PB p-preDC, the “Number of PB p-preDC in humans” value is “increase”.

Values taken from patent publication US20100016240A1, “FACILITATING CELLS AND DIABETES AND METHODS RELATED THERETO” (priority 2008, published 2010).
